1 compound from patent US5760188A, “Marker for neurotensin receptor” (Martin R&F Inc., priority 1996, dated 1998) can be followed below.

A short description of one data set: Stability / shelf life. The format is physicochemical. The conditions noted are these: protected from light and maintained at 4° C.
The next data set in a line: Solubility. The format is physicochemical. The conditions noted are these: distilled water or aqueous buffer.

`CC[C@H](C)[C@H](NC(=O)[C@H](Cc1ccc(O)cc1)NC(=O)[C@@H]1CCCN1C(=O)[C@H](CCCNC(=N)N)NC(=O)[C@H](CCCNC(=N)N)NC(=O)[C@@H]1CCCN1C(=O)[C@H](CCCCN)NC(=O)[C@H](CC(N)=O)NC(=O)[C@H](CCC(=O)O)NC(=O)[C@H](Cc1ccc(O)cc1)NC(=O)[C@H](CC(C)C)NC(=O)[C@H](CCC(=O)O)NC(=S)Nc1ccc2c(c1)C(=O)OC21c2ccc(O)cc2Oc2cc(O)ccc21)C(=O)N[C@@H](CC(C)C)C(=O)O` [N-FTC-[Glu^1]NT, N-fluoresceyl thiocarbamyl-[Glu^1] neurotensin] registered a toxicity in the data set “Toxicity (statement)” of 100% non-toxic. Moreover, the stability entry in “Stability / shelf life” is reported as “stable”. In “Solubility”, the solubility result was “freely soluble”.
